Reference: PubChem BioAssay AID179 (DTP/NCI, 2004)
Calls of active or inactive are those of the source.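 Rule for the calls: active = compounds giving half or more protection of infected cells from virus-caused growth loss, again on retest; inactive = the rest.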

Test system: CEM cells HIV-1 protection, formazan growth assay
Assay: NCI AIDS Antiviral Assay
Conditions: for IC50: measured here: growth of uninfected CEM cells
Summary of the method: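 Screen of anti-HIV-1 activity in human CEM cells using a formazan-based growth measurement at five drug concentrations. Hits with 50% or greater protection were repeated, and confirmation required reproducible complete protection.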

Structure (SMILES)	EC50 [µM]	IC50 [µM]	outcome
CCOC(=O)c1ccc(N=[N+]([O-])c2ccc(C(=O)OCC)cc2)cc1	> 100	> 100	
COC(=O)/C(C#N)=C(\N)c1c(C)c2ccccc2oc1=N	> 200	> 200	
Cc1nc2cccc(F)c2c(=O)n1-c1nnc(C(F)(F)F)s1	> 200	4.47	
Cc1cc(O)c2c(c1)C(C13Cc4cc(O)c5c(c4[C@H]1C=C[C@@H](O)[C@H]3O)C(=O)c1cccc(O)c1C5=O)OC2=O (stereo not given in full)			inactive
Cc1cc2c(C(C)C)c(O)c(O)c(C=O)c2c(O)c1-c1c(C)cc2c(C(C)C)c(O)c(O)c(C=O)c2c1O	> 200	1.23	inactive
Cc1[nH]c(=O)[nH]c(=O)c1/C=C/C(=O)NC(CO)CS(=O)Cc1ccccc1 (stereo not given)	> 200	> 200	
N#CCCN(c1ccc(C=Nc2ccc(C(=O)O)cc2)cc1)S(=O)(=O)c1ccccc1	> 302	> 302	
O=C(N/C(=C\c1ccc(Oc2ccc(Cl)c(Cl)c2)cc1)c1nc2ccccc2[nH]1)c1ccccc1			inactive
O=C(Nc1ccc(O)cc1C(=O)O)c1ccc(O)cc1	> 229	> 229	
Cc1[nH]n(-c2ncc(C#N)c(=O)[nH]2)c(=O)c1CCO	> 200	> 200	
CCN(CC)C1=CC(=O)n2cccc21	> 200	> 200	
C[Si](C)(C)[C@@]1([Se]c2ccccc2)CC[C@@H]1C(=O)c1ccccc1	> 13.5	> 13.5	
CN1C(=O)[C@@H]2N(N(C)C1=O)[C@@]1(Br)C(=O)NC(=O)[C@@]21Br	102	148	
COc1cc2c(cc1OC)C1C[C@]3(CCN1CC2)C(=O)N(c1ccccc1)C(=O)N3C(C)=O (stereo not given in full)	> 10	> 10	
CCOC(=O)COc1ccc(OC)c2c1C(=O)CCC2			inactive
OCCN1OCCCC1c1ccccc1 (stereo not given)	> 1200	> 1200	
O=C(O)CSC(=O)Nc1ccc(N=Nc2ccccc2)cc1			inactive
Cn1cc(NC(=O)Nc2cc(C(=O)Nc3cc(C(=O)Nc4cc(C(=O)Nc5ccc(P(=O)(O)O)c6cc(P(=O)(O)O)ccc56)n(C)c4)n(C)c3)n(C)c2)cc1C(=O)Nc1cc(C(=O)Nc2cc(C(=O)Nc3ccc(P(=O)(O)O)c4cc(P(=O)(O)O)ccc34)n(C)c2)n(C)c1	1.29	37.2	
c1ccn2nncc2c1	> 200	> 200	
CCOC(=O)c1nc2c(OC)nn(O)cc-2c1[N+](=O)[O-]	> 457	5.75	
CC(=[OH+])[CH-]C(C)=NCC(C)N=C(C)CC(C)=[OH+].[Cu+2] (stereo not given)	> 200	20.9	

Structure (SMILES)	EC50 [µM]	IC50 [µM]	outcome
COc1cc2c(cc1C)n(O)c(C)c(C(=O)C/C(=N/NC(=O)C[N+](C)(C)C)C(=O)Nc1cccc(Cl)c1C)[n+]2=O	> 12	> 12	
CC(=S)N/C=C(/c1ccc(Cl)cc1Cl)S(=O)(=O)Cc1ccc(Cl)cc1Cl	> 100	> 100	
COC(=O)/C(=C(\C)C=O)N1C(=O)C(NC(=O)c2ccccc2)C1SSc1nc2ccccc2s1 (stereo not given)	> 200	12.9	
CN(C)S(=O)(=O)C(c1ccccc1)C1(O)CCCCC1 (stereo not given)	> 437	> 437	
COC(=O)c1ccccc1CC1Cc2c(C)ccc(C)c2C1=O (stereo not given)	> 200	34.7	
O=[N+]([O-])c1ccc(CCc2ccc([N+](=O)[O-])cc2S(=O)(=O)O)c(S(=O)(=O)O)c1			inactive
COC1(CC2(OC)C=CC(=O)O2)C=CC(=O)O1 (stereo not given)	> 105	55	
O=C1NC(N2CCCC(CO)C2)=N/C1=C\c1ccccc1 (stereo not given)	> 200	> 200	
COC(=O)CC1C=CC(C)(OC)OO1 (stereo not given)	> 200	93.3	
CC(C)/C(Cl)=N/OC(NC(=O)Nc1ccc(Cl)c(Cl)c1)(C(F)(F)F)C(F)(F)F			inactive
CC(C)(C)OC(=O)CN1CCNCCN(CC(=O)OC(C)(C)C)CC1	> 200	38	
CCOC(=O)C(NC(=O)c1ccccc1)(Nc1ccc(S(=O)(=O)Nc2cc(C)nc(C)n2)cc1)C(F)(F)F (stereo not given)	> 200	> 200	
Cn1cc(C2NC(=O)c3ccccc3N2)c2ccccc21 (stereo not given)	> 200	0.117	
CNC(=S)/C(C#N)=C(\N)N1CCN(C)CC1	> 200	> 200	
O=C(O)C1CC(O)CN1S(=O)(=O)Cc1ccccc1 (stereo not given)	> 200	> 200	
COc1ccc(/C=C(\C#N)c2ccccn2)cc1OC	> 200	50.1	
COc1ccccc1/C=C/c1nc2ccccc2o1	> 200	107	
CO/C(CO)=C1\CC2(OC1=O)[C@@H]1O[C@@H]1C1(O)[C@H]3C(=O)O[C@@H]([C@@H](OC)C21C)[C@@]3(O)C(C)C (stereo not given in full)	> 407	> 407	
CC1(C)CC(=O)c2c(ccc(C(=O)C[C@@H](N)CO)c2N)O1			inactive
O=S(=O)(O)CC(O)CN(CCO)CCO (stereo not given)	> 200	> 200	
CSC1=C(C#N)C(=O)N(c2ccc(C)cc2)C(=O)C1C#N (stereo not given)	> 200	151	

Structure (SMILES)	EC50 [µM]	IC50 [µM]	outcome
O=c1n(Cl)c(=O)n(Cl)c(=O)n1Cl			inactive
CC(=O)Nc1ccc(NC(=O)CC(=O)Nc2ccc(NC(C)=O)cc2)cc1	> 200	> 200	
N#C/C(=C1\OC(=N)C(c2ccc(Cl)cc2Cl)C1=O)c1ccc(Cl)cc1Cl (stereo not given)			inactive
CN(C)CCN1C(=O)c2c(c3cccn3c3c2cnn3-c2ccccc2)C1=O	> 200	> 200	
C[C@@H]1C[C@@H](O)[C@]2(O)O[C@@H]3C[C@@]4(C=O)[C@@H](CC[C@@H]5[C@@H]4CC[C@]4(C)[C@@H](C6=CC(=O)OC6)CC[C@]54O)C[C@H]3O[C@@H]2O1	> 468	1.82	
CC(=O)OC(C)(C)c1ccc2c(c1)C(=O)C[C@@H]1[C@](C)(C#N)CCC[C@]21C	> 200	126	
Cc1nc(C)c(C(=O)NNC(=O)C[N+](C)(C)C)cc1C(=O)NNC(=O)C[N+](C)(C)C	> 200	> 200	
Cc1nn2c(=O)c([N+](=O)[O-])c(/C=C/c3ccccc3)nc2s1	> 200	3.31	
CC(C)(C)c1c(C(C)(C)C)c(=O)c1=O	> 200	> 200	
CCOc1c2c(nn(C)c1=O)Oc1ccccc1N2CCCN1CCOCC1	> 589	19.1	
Cc1ccc(C)c(N=Nc2c(S(=O)(=O)O)cc3cc(NC(=O)Nc4ccc5c(O)c(N=Nc6ccc7cc(S(=O)(=O)O)ccc7c6)c(S(=O)(=O)O)cc5c4)ccc3c2O)c1	16.2	> 100	
CCOC(=O)CC(C)OC1CCCCO1 (stereo not given)			inactive
NC(=S)N/N=C/c1cc2c3c(c1)CCCN3CCC2	> 200	> 200	
CC12C(C(=O)O)C(=O)C(C(=O)O)C1(C)C(C(=O)O)C(=O)C2C(=O)O (stereo not given)	> 525	398	
CN1C/C(=C\c2ccncc2)C(=O)/C(=C/c2ccncc2)C1	52.5	> 200	
COc1ccc(CC2c3cc(OC)c(OC)c(OC)c3CC[N+]2(C)C)cc1Oc1ccc(CC2c3cc4c(c(OC)c3CCN2C)OCO4)cc1 (stereo not given)			inactive
O=C1CS(=O)(=O)C2(CCCCC2)C(=O)N1	> 200	> 200	
NCC(CS)C(=O)NC(CS)C(=O)NC(CS)C(=O)NCCNc1ccc(NCCNC(=O)C(CS)NC(=O)C(CS)NC(=O)C(CN)CS)c2c1C(=O)c1c(O)ccc(O)c1C2=O (stereo not given)	> 2	0.0126	
O=C1NC(=O)c2c1n(Cc1ccccc1)c(=O)n2Cc1ccccc1	> 77.6	> 77.6	
Cc1cc(N=Nc2ccc(Sc3ccc(N=Nc4ccc(O)c(C(=O)O)c4)cc3)cc2)c(N)c(N=Nc2ccc(C(=O)O)cc2)c1N	> 200	27.5	
Cc1ccc(O)c(C(c2cc(C)ccc2O)c2cc([N+](=O)[O-])ccc2O)c1			inactive

Structure (SMILES)	EC50 [µM]	IC50 [µM]	outcome
CC1(C)C[C@H]2[C@H](O)C(CO)=C3C(=O)[C@@H](O)[C@]3(C)[C@H]2C1			inactive
CCC1Sc2cc(OC)cc3[nH]c(=S)n(c23)C1=O (stereo not given)	126	148	
Cc1c2oc(=O)c(C#N)cc2c2ccccn12	> 200	> 200	
CC(C)CC(NC=O)C(=O)NC(Cc1ccccc1)NC(=O)CNC(=O)C(C)NC(=O)C(N)Cc1ccc(O)cc1 (stereo not given)	141	151	
CN1CCc2cc(O)c3cc2C1Cc1ccc(cc1)Oc1cc(ccc1OC(=O)C(C)(C)C)CC1c2c(cc(OC(=O)C(C)(C)C)c(OC(=O)C(C)(C)C)c2O3)CCN1C (stereo not given)			inactive
CCOC(=O)c1ccccc1-c1c2cc(Br)c(=O)c(Br)c-2oc2c(Br)c(O)c(Br)cc12	> 200	12	
CN(C)Cc1cc(C(=O)/C=C/c2ccc(/C=C/C(=O)c3cc(CN(C)C)c(O)c(CN(C)C)c3)cc2)cc(CN(C)C)c1O	> 200	10	
CCOC(=O)C(c1ccsc1)C(C(=O)OCC)c1cccs1 (stereo not given)	> 200	> 200	
N#C/C(=C\c1cc(Br)c(O)c(Br)c1)c1ccccn1	> 200	31.6	
O=C(CCc1cc(O)cc(O)c1)NCCCNC(=O)CCc1cc(O)cc(O)c1	> 200	> 200	
CN1CCN(CCSc2nnc(-c3cc4ccccc4s3)c3ccccc23)CC1	> 162	12.9	
O=C1CC(c2ccccc2)Sc2ccccc2N1 (stereo not given)	> 200	89.1	
C=C1C(=O)O[C@H]2C1[C@H](OC(=O)/C(C)=C\COC(C)=O)C[C@]1(CO1)[C@@H]1[C@H](O)[C@H]3O[C@@]3(C)[C@@H]12 (stereo not given in full)			inactive
CC(=O)NC1=C(C)C(=O)c2c(nc3n2CCC3O)C1=O (stereo not given)	> 200	1.58	
COc1ccc(C2c3cc4c(cc3OC(NCCO)C2C)OCO4)cc1 (stereo not given)	> 200	21.9	
COC(=O)c1c2c(cc3c1CC1(Cc4cc5c(c(C(C)=O)c4C1)CCCC5)C3)CCCC2 (stereo not given)	> 200	> 200	
CCOC(=O)c1c(NC(=O)c2ccccc2)c(C#N)c2n1CCCCC2	> 100	> 100	
CCOc1ccc(N=C(NC(=O)c2ccccc2)SC)cc1	> 22.4	> 22.4	
O=NNc1cnccn1	> 1700	> 1700	
